Experimental data taken from patent US20220089575A1, “FARNESOID X RECEPTOR AGONISTS AND USES THEREOF” (Metacrine, Inc., priority 2017, published 2022).

Molecular target: T1, hFXR (Homo sapiens, UniProt Q96RI1)
T1 construct: expressed in transfected cells; host or cells: CV-1 cells
T1 sequence (Q96RI1 1-486): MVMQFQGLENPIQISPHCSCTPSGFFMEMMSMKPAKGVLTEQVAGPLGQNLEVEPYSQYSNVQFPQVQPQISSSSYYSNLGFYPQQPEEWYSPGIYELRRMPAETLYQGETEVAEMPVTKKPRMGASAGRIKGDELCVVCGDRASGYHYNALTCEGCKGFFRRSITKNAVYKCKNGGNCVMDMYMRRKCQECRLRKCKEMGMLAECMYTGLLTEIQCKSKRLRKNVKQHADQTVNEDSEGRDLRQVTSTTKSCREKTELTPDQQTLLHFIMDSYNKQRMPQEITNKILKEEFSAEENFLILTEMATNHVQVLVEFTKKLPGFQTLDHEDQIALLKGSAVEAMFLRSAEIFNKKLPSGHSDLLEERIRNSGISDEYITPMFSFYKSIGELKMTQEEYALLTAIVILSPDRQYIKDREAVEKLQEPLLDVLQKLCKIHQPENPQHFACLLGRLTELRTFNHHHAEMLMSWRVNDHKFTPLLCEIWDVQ
T1 sequence (P19793 1-462 partner): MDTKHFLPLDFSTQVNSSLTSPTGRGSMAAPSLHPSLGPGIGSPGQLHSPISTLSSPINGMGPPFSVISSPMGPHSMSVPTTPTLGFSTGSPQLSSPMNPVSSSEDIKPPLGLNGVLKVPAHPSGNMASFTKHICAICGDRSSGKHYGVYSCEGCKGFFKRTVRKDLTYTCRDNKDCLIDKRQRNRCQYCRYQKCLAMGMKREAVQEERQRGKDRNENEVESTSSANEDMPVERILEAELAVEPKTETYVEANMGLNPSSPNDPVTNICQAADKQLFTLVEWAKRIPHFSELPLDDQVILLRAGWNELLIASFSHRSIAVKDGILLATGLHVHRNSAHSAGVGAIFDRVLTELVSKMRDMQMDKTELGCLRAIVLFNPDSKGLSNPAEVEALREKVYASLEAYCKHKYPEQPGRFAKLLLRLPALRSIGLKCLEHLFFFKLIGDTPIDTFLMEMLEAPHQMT
Assay: In Vitro FXR Assay (TK): TK-ECRE-luc reporter in transfected CV-1 cells
Assay type: cell-based
Details: 18 hrs, luminescence, maximum efficacy of <25% of the Fexarmine control classified as '+'
Outline: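 Luciferase read-out after 18 h compound exposure of CV-1 cells carrying transfected hFXR plus hRXR expression plasmids, TK-ECRE-luc reporter and pCMX-YFP. Cells cultured in charcoal-stripped FBS before transfection; compounds serially diluted in DMSO.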

SMILES | EC50 [nM]
COc1ccc([C@H]2CC[C@H](CN(c3cc(-c4cnn(C(C)C)c4)ccn3)C(=O)[C@H]3CC[C@H](OC(=O)NCCO)CC3)CC2)cc1C [Compound 6.17, trans-4-((4-(1-Isopropyl-1H-pyrazol-4-yl)pyridin-2-yl)((trans-4-(4-methoxy-3-methylphenyl)cyclohexyl)methyl)carbamoyl)cyclohexyl (2-hydroxyethyl)carbamate] | ≤ 250
COc1ncc([C@H]2CC[C@H](CN(c3cccc(-c4cnn(C5CC5)c4)c3)C(=O)[C@H]3CC[C@H](OC(=O)NCCO)CC3)CC2)cc1Cl [Compound 6.23, trans-4-(((trans-4-(5-Chloro-6-methoxypyridin-3-yl)cyclohexyl)methyl) (3-(1-cyclopropyl-1H-pyrazol-4-yl)phenyl)carbamoyl)cyclohexyl (2-hydroxyethyl)carbamate] | ≤ 250
COc1ccc([C@H]2CC[C@H](CN(c3cccc(-c4cnn(C5CC5)c4)c3)C(=O)[C@H]3CC[C@H](OC(=O)NC4COC4)CC3)CC2)cc1C [Compound 6.24, trans-4-((3-(1-Cyclopropyl-1H-pyrazol-4-yl)phenyl)((trans-4-(4-methoxy-3-methylphenyl)cyclohexyl)methyl)carbamoyl)cyclohexyl oxetan-3-ylcarbamate] | ≤ 250
COc1ccc([C@H]2CC[C@H](CN(c3cccc(-c4cnn(C5CC5)c4)c3)C(=O)[C@H]3CC[C@H](OC(=O)N4CCN(C)CC4)CC3)CC2)cc1C [Compound 6.25, trans-4-((3-(1-Cyclopropyl-1H-pyrazol-4-yl)phenyl)((trans-4-(4-methoxy-3-methylphenyl)cyclohexyl)methyl)carbamoyl)cyclohexyl 4-methylpiperazine-1-carboxylate] | ≤ 250
COCCN(C)C(=O)O[C@H]1CC[C@H](C(=O)N(C[C@H]2CC[C@H](c3ccc(OC)c(C)c3)CC2)c2cccc(-c3cnn(C4CC4)c3)c2)CC1 [Compound 6.26, trans-4-((3-(1-Cyclopropyl-1H-pyrazol-4-yl)phenyl)((trans-4-(4-methoxy-3-methylphenyl)cyclohexyl)methyl)carbamoyl)cyclohexyl (2-methoxyethyl) (methyl)carbamate] | ≤ 250
COc1ccc([C@H]2CC[C@H](CN(c3cccc(-c4cnn(C5CC5)c4)c3)C(=O)[C@H]3CC[C@H](OC(=O)NCCO)CC3)CC2)nc1C#N [Compound 6.28, trans-4-(((trans-4-(6-Cyano-5-methoxypyridin-2-yl)cyclohexyl)methyl) (3-(1-cyclopropyl-1H-pyrazol-4-yl)phenyl)carbamoyl)cyclohexyl (2-hydroxyethyl)carbamate] | ≤ 250
COc1ccc([C@H]2CC[C@H](CN(c3cccc(-c4cnn(C5CC5)c4)c3)C(=O)[C@H]3CC[C@H](OC(=O)N4CC(SC)C4)CC3)CC2)cc1C [Compound 6.30, trans-4-((3-(1-Cyclopropyl-1H-pyrazol-4-yl)phenyl)((trans-4-(4-methoxy-3-methylphenyl)cyclohexyl)methyl)carbamoyl)cyclohexyl 3-(methylthio) azetidine-1-carboxylate] | ≤ 250
COc1ccc([C@H]2CC[C@H](CN(c3cc(-c4cnn(C(C)C)c4)ccn3)C(=O)[C@H]3CC[C@H](OC(=O)NC4CC4)CC3)CC2)nc1C [Compound 6.31, trans-4-((4-(1-Isopropyl-1H-pyrazol-4-yl)pyridin-2-yl)((trans-4-(5-methoxy-6-methylpyridin-2-yl)cyclohexyl)methyl)carbamoyl)cyclohexyl cyclopropylcarbamate] | ≤ 250
COc1ccc([C@H]2CC[C@H](CN(c3cc(-c4cnn(C(C)C)c4)ccn3)C(=O)[C@H]3CC[C@H](OC(=O)NC(C)C)CC3)CC2)nc1C#N [Compound 6.32, trans-4-(((trans-4-(6-Cyano-5-methoxypyridin-2-yl)cyclohexyl)methyl) (4-(1-isopropyl-1H-pyrazol-4-yl)pyridin-2-yl)carbamoyl)cyclohexyl isopropylcarbamate] | ≤ 250
COc1ccc([C@H]2CC[C@H](CN(c3cc(-c4cnn(C(C)C)c4)ccn3)C(=O)[C@H]3CC[C@H](OC(=O)NC4CC4)CC3)CC2)cc1C#N [Compound 6.35, trans-4-(((trans-4-(3-Cyano-4-methoxyphenyl)cyclohexyl)methyl)(4-(1-isopropyl-1H-pyrazol-4-yl)pyridin-2-yl)carbamoyl)cyclohexyl cyclopropylcarbamate] | ≤ 250

Continued, values first:

EC50 [nM] | SMILES
≤ 250 | COc1ccc([C@H]2CC[C@H](CN(c3cccc(-c4cnn(C(C)C)c4)c3)C(=O)[C@H]3CC[C@H](OC(=O)NCCCO)CC3)CC2)nc1C [Compound 6.16, trans-4-((3-(1-Isopropyl-1H-pyrazol-4-yl)phenyl)((trans-4-(5-methoxy-6-methylpyridin-2-yl)cyclohexyl)methyl)carbamoyl)cyclohexyl (3-hydroxypropyl)carbamate]
≤ 250 | COc1ccc([C@H]2CC[C@H](CN(c3cccc(-c4cnn(C5CC5)c4)c3)C(=O)[C@H]3CC[C@H](OC(=O)NC4CN(C)C4)CC3)CC2)cc1C [Compound 6.18, trans-4-((3-(1-Cyclopropyl-1H-pyrazol-4-yl)phenyl)((trans-4-(4-methoxy-3-methylphenyl)cyclohexyl)methyl)carbamoyl)cyclohexyl (1-methylazetidin-3-yl)carbamate]
≤ 250 | COc1ccc([C@H]2CC[C@H](CN(c3cccc(-c4cnn(C5CC5)c4)c3)C(=O)[C@H]3CC[C@H](OC(=O)NCCO)CC3)CC2)cc1C#N [Compound 6.19, trans-4-(((trans-4-(3-Cyano-4-methoxyphenyl)cyclohexyl)methyl)(3-(1-cyclopropyl-1H-pyrazol-4-yl)phenyl)carbamoyl)cyclohexyl (2-hydroxyethyl)carbamate]
≤ 250 | COc1ccc([C@H]2CC[C@H](CN(c3cccc(-c4cnn(C(C)C)c4)c3)C(=O)[C@H]3CC[C@H](OC(=O)NCCO)CC3)CC2)cc1C#N [Compound 6.20, trans-4-(((trans-4-(3-Cyano-4-methoxyphenyl)cyclohexyl)methyl)(3-(1-isopropyl-1H-pyrazol-4-yl)phenyl)carbamoyl)cyclohexyl (2-hydroxyethyl)carbamate]
≤ 250 | COc1ccc([C@H]2CC[C@H](CN(c3cc(-c4cnn(C5CC5)c4)ccn3)C(=O)[C@H]3CC[C@H](OC(=O)NCCO)CC3)CC2)cc1C#N [Compound 6.21, trans-4-(((trans-4-(3-Cyano-4-methoxyphenyl)cyclohexyl)methyl)(4-(1-cyclopropyl-1H-pyrazol-4-yl)pyridin-2-yl)carbamoyl)cyclohexyl (2-hydroxyethyl)carbamate]
≤ 250 | COc1ccc([C@H]2CC[C@H](CN(c3cc(-c4cnn(C(C)C)c4)ccn3)C(=O)[C@H]3CC[C@H](OC(=O)NCCO)CC3)CC2)cc1C#N [Compound 6.22, trans-4-(((trans-4-(3-Cyano-4-methoxyphenyl)cyclohexyl)methyl)(4-(1-isopropyl-1H-pyrazol-4-yl)pyridin-2-yl)carbamoyl)cyclohexyl (2-hydroxyethyl)carbamate]
≤ 250 | COc1ccc([C@H]2CC[C@H](CN(c3cccc(-c4cnn(C5CC5)c4)c3)C(=O)[C@H]3CC[C@H](OC(=O)N4CCSCC4)CC3)CC2)cc1C [Compound 6.27, trans-4-((3-(1-Cyclopropyl-1H-pyrazol-4-yl)phenyl)((trans-4-(4-methoxy-3-methylphenyl)cyclohexyl)methyl)carbamoyl)cyclohexyl thiomorpholine-4-carboxylate]
≤ 250 | COc1ccc([C@H]2CC[C@H](CN(c3cccc(-c4cnn(C5CC5)c4)c3)C(=O)[C@H]3CC[C@H](OC(=O)N4CC(S(C)(=O)=O)C4)CC3)CC2)cc1C [Compound 6.29, trans-4-((3-(1-Cyclopropyl-1H-pyrazol-4-yl)phenyl)((trans-4-(4-methoxy-3-methylphenyl)cyclohexyl)methyl)carbamoyl)cyclohexyl 3-(methylsulfonyl)azetidine-1-carboxylate]
≤ 250 | COc1ccc([C@H]2CC[C@H](CN(c3cc(-c4cnn(C(C)C)c4)ccn3)C(=O)[C@H]3CC[C@H](OC(=O)NC4CC4)CC3)CC2)nc1C#N [Compound 6.33, trans-4-(((trans-4-(6-Cyano-5-methoxypyridin-2-yl)cyclohexyl)methyl) (4-(1-isopropyl-1H-pyrazol-4-yl)pyridin-2-yl)carbamoyl)cyclohexyl cyclopropylcarbamate]
≤ 250 | COCCNC(=O)O[C@H]1CC[C@H](C(=O)N(C[C@H]2CC[C@H](c3ccc(OC)c(C#N)c3)CC2)c2cc(-c3cnn(C(C)C)c3)ccn2)CC1 [Compound 6.34, trans-4-(((trans-4-(3-Cyano-4-methoxyphenyl)cyclohexyl)methyl)(4-(1-isopropyl-1H-pyrazol-4-yl)pyridin-2-yl)carbamoyl)cyclohexyl (2-methoxyethyl)carbamate]
